The text below walks through data of PubChem BioAssay AID1645866 (Buhrlage Lab, Dana-Farber Cancer Institute and Novartis …, 2021).

The assay addresses Ubiquitin carboxyl-terminal hydrolase 28 (Homo sapiens) (UniProt Q96RU2). Nature of the assay: Concentration-response biochemical assay confirming initial hits as inhibitors of ubiquitin-specific protease 28 (AID 1645866). As to conditions: purified USP28, ubiquitin-rhodamine fluorescence, 30 min.

The source made the active and inactive calls.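 The calls were made as follows: active = in confirmatory dose-response testing, peak deubiquitinase inhibition of 30% or more; inactive = the rest.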 Where only a bound is given, the exact number is not on record here.

Ubiquitin carboxyl-terminal hydrolase 28 (Homo sapiens), sequence (Q96RU2 whole entry, looked up): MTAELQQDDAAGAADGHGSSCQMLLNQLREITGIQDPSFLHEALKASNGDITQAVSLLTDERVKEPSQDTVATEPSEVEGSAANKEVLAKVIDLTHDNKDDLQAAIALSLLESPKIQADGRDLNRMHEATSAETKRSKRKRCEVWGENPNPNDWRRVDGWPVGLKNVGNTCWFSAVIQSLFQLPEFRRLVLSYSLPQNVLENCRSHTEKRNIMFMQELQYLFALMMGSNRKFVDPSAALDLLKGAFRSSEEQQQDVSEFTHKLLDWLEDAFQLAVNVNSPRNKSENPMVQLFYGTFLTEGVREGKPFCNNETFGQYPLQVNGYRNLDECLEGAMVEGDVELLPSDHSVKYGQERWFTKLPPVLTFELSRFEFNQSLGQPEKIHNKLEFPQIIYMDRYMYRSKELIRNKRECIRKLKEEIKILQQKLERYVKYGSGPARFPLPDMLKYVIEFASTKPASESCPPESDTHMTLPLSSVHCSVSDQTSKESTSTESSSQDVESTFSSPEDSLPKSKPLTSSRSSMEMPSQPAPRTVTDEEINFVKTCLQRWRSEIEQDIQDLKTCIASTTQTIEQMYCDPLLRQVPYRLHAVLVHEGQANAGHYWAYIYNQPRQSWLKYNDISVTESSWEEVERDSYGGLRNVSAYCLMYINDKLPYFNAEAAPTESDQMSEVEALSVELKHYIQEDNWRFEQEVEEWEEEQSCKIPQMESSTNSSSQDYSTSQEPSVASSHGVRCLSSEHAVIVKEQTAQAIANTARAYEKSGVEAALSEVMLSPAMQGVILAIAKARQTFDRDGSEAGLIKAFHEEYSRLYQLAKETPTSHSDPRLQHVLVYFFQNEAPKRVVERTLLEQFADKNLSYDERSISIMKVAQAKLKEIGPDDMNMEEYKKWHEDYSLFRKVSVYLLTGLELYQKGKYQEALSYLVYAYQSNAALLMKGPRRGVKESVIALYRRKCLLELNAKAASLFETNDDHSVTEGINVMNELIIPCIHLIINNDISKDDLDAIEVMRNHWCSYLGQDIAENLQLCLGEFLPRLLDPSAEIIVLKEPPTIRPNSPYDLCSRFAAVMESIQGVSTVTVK

With `O=C(Cc1cc(-c2ccc(F)cc2)on1)NCc1ccccc1`, the half-maximal inhibitory concentration (IC50) (as a rule, the concentration that inhibits the measured activity by half) was 22.1 µM. With `O=C(COC(=O)c1ccc2[nH]c3c(c2c1)CCCC3)Nc1ccc2c(c1)OCO2`, the IC50 is 23.6 µM. The figure for `O=C(/C=C/c1ccc(F)cc1)N1CCc2ccccc2C1` is 35.1 µM; for `Cc1ccc2cc(CCNC(=O)c3cccc(Br)c3)c(=O)[nH]c2c1` it is 37.2 µM; for `Cc1nc(C(=O)N[C@@H](C)C(=O)NCc2ccc3c(c2)OCO3)cc2c1[nH]c1ccccc12` it is 22.5 µM. The figure for `Cn1cc(CCNC(=O)c2cc3ccccc3[nH]2)c2cccnc21` is 8.29 µM; for `COc1ccc(C2SCC(=O)Nc3c2c(=O)[nH]n3C2CCCCCC2)cc1` (stereo not drawn) it is 25.7 µM. The figure for `CCN(CCCNC(=O)c1ccc(Cn2c(=O)[nH]c3ccccc3c2=O)cc1)c1ccccc1` is 13.6 µM; for `COCC(=O)Nc1cc(F)c2nc(N3CCOCC3)ccc2c1` it is > 50 µM (inactive); for `O=C(Nc1cccc(C(F)(F)F)c1)c1cc2c(s1)-c1ccccc1OC2` it is 6.78 µM. Consider `O=C(COc1ccc(Cl)cc1Cl)Nc1ccccc1-c1nc2ccccc2[nH]1`, for which the IC50 was 2.38 µM. For `Cc1ccccc1C(=O)Nc1ccc(Cc2ccc(NC(=O)c3ccccc3C)c(O)c2)cc1O`, the half-maximal inhibitory concentration (IC50) was 43.7 µM. The figure for `COc1cccc(/C=C/C(=O)Nc2ccc(N3CCOCC3)cc2)c1OC` is 2.32 µM; for `Cc1ccnc(NC(=O)c2ccn(COc3ccc(Cl)cc3)n2)c1` it is 21.9 µM. The figure for `Cc1ccc(Cn2c(=O)n(CCC(=O)NCCc3ccccc3)c(=O)c3ccccc32)cc1` is 13 µM; for `O=C(Nc1ccc(Cl)cc1F)c1cc(-c2ccccn2)n[nH]1` it is 1.7 µM; for `Cc1ccc(C(=O)CCC(=O)OCC(=O)c2ccc3[nH]c(=O)[nH]c3c2)cc1` it is 24.1 µM. The figure for `Cc1ccc2c(c1C)NC(=O)[C@]21[C@@H]2C(=O)N(c3cc(Cl)ccc3Cl)C(=O)[C@@H]2[C@@H]2CCCN21` is > 50 µM (inactive); for `CC(C)c1nc2sc3c(NCc4ccco4)ncnc3c2c2c1CCC2` it is 3.08 µM; for `CCOc1ccc(NS(=O)(=O)c2ccc(NC(=O)Nc3ccccc3)cc2)cc1` it is 16 µM. For the molecule `O=S(=O)(c1cccc(F)c1)N1CCc2nc3ccccc3n2CC1`, the concentration for half-maximal inhibition (IC50) was 10.8 µM.

Consider `CCCC(=O)Nc1ccc(SCc2nnc(-c3ccccc3)o2)cc1`, for which the IC50 was 12.7 µM. On to `Cc1c(-c2nnc(-c3ccccn3)o2)nnn1-c1cccc(Cl)c1`, for which the concentration for half-maximal inhibition (IC50) was 25.6 µM. As for `O=[N+]([O-])c1ccccc1C(c1c[nH]c2ccccc12)c1c[nH]c2ccccc12`, the IC50 is 23.8 µM. The figure for `CCOc1ccccc1C(=O)NCC(=O)OC(C(=O)c1c[nH]c2ccccc12)c1ccccc1` (stereo not drawn) is > 50 µM (inactive); for `O=C(CCSc1ccc(Cl)cc1)c1cccs1` it is 19.4 µM. The figure for `Cc1ccc(NC(=O)CSc2nc3c(cc2C#N)C(=O)CCC3)cc1` is 21 µM; for `CNc1nc2c(c(=O)n1Cc1ccccc1)CN(C(=O)c1ccc(CN)cc1)CC2` it is 48.4 µM. The figure for `Cc1ccc(NC(=O)c2cc(=O)n(C)c3c2c(=O)n(C)c(=O)n3C)c(C)c1` is > 50 µM (inactive). Take `COc1ccc(C2/C(=C(\O)c3ccccc3)C(=O)C(=O)N2c2nc3ccc(F)cc3s2)cc1` (stereo not drawn): the IC50 was 21.6 µM. The figure for `CC1(C)CC2CC(C)(CN2Cc2c(O)ccc3ccccc23)C1` (stereo not drawn) is > 50 µM (inactive); for `Cc1sc2ccn(C)c(=O)c2c1C(=O)NC1CCCC1` it is 4.28 µM. The figure for `COc1cc2c(cc1NC(=O)c1ccc(-n3cnnn3)cc1)oc1ccccc12` is 1.33 µM; for `Cc1c(-c2nc(-c3ccccc3Cl)no2)nnn1-c1cccc(F)c1` it is 14.2 µM. The figure for `CC1=C(C)C(N(c2ccccc2)c2ccccc2)N(CCC(C)C)C1=O` (stereo not drawn) is 24.9 µM; for `COc1ccc(NC(=O)c2nnn(-c3ccccc3C)c2C)cc1OC` it is 4.78 µM. For `NC(=O)CCC(=O)N[C@H]1C[C@H]2CN(Cc3ccccc3)c3ccccc3CN2C1`, the IC50 is > 50 µM (inactive). The figure for `CCC(C(=O)NCc1ccncc1)N(c1cccc(Cl)c1)S(C)(=O)=O` (stereo not drawn) is > 50 µM (inactive). The figure for `COc1cccc(NC(=O)C2CCC(CNS(=O)(=O)c3ccc4c(c3)C(C)(C)C(=O)N4C)CC2)c1` (stereo not drawn) is 2.6 µM; for `COc1ccc(C(=O)Nc2nc3n(n2)C(c2ccccc2)CC(=O)N3)cc1` (stereo not drawn) it is 12.5 µM; for `COc1cnc(-c2ccccn2)nc1Sc1ccc(C)cc1` it is > 50 µM (inactive). As for `Cn1nc(-c2nc(-c3ccccc3)no2)c2c1CCN(C(=O)C1CC1)C2`, the IC50 was > 50 µM (inactive). The figure for `N#Cc1cn(CC(=O)N2CCc3ccccc32)c2ccccc12` is 17.2 µM; for `COc1cnc(CSc2ncccn2)cc1OCC(=O)Nc1cc(C)ccc1C` it is > 50 µM (inactive); for `O=C(OCc1ccc(F)cc1)c1ccc2ccccc2n1` it is 2.55 µM.

In the case of `COc1cc(NC(=O)Cn2nc(-c3ccc(F)cc3)ccc2=O)ccc1-n1cnnn1`, the IC50 is 1.98 µM. Turning to `CCOc1ccc(NC(=O)COc2cccc3c2CCN(CC)C3=O)cc1`, the IC50 is 4.24 µM. Take `COc1cc2c(cc1OC)-c1cc(NCc3cc(OC)c(OC)c(OC)c3)nc(=O)n1CC2`: the IC50 is > 50 µM (inactive). The figure for `Cc1cc2nc(/C=C/c3ccccc3)n(Cc3cccc(F)c3)c2cc1C` is 4.94 µM; for `CC1=C(c2ccc(F)cc2)S(=O)(=O)NC1=NCC(=O)Nc1ccc(F)cc1F` it is 41.1 µM; for `N#Cc1ccc(NC(=O)COC(=O)c2ccc3ccccc3n2)cc1` it is > 50 µM (inactive). The figure for `CC(=O)Nc1ccc(S(=O)(=O)N2CCCC(C(=O)Nc3cccc4ccccc34)C2)cc1` (stereo not drawn) is 19.1 µM; for `CC1=CC(=O)C(C2=C(O)C(=O)C(C)=CC2=O)=C(O)C1=O` it is 20.3 µM; for `Cn1c(=O)cc(SCC(=O)NC2CCN(Cc3ccccc3)CC2)c2ccc(Cl)cc21` it is 31.6 µM. The figure for `CCOC(=O)c1c(C)nc2n(Cc3ccccc3)c3ccccc3n12` is 21.7 µM; for `O=C(Nc1ccc2nccnc2c1)c1cccc(C(F)(F)F)c1` it is 33.6 µM.

As for `Nc1nonc1C(=O)NCCNCc1cccc(OCc2ccc(Cl)cc2)c1`, the concentration for half-maximal inhibition (IC50) was 32.6 µM.

In the case of `CCOC(=O)Nc1ccc(N2CCn3c(nc4ccccc43)C2)cc1OC`, the IC50 is > 50 µM (inactive). `O=C(Cc1cccnc1)Nc1ccc(N2CCN(C3CCCCC3)C2=O)nc1`: the IC50 is > 50 µM (inactive). The figure for `N#C/C(=C/c1sc(N2CCOCC2)nc1-c1ccccc1)c1ccccn1` is > 50 µM (inactive). The figure for `CC(C)Cn1cc(OC(=O)c2ccc(F)cc2)c2c1nc(-c1ccc(F)cc1)n1c3ccccc3nc21` is > 50 µM (inactive).

With `COc1ccc(NC(=O)c2ccnc(Nc3ccc(OC)cc3)c2)cc1`, the half-inhibitory concentration (IC50) is 39.7 µM. The figure for `C=C(NC(=O)C(=C)NC(=O)c1csc(C2=N[C@@H]3c4csc(n4)[C@H]4NC(=O)c5csc(n5)[C@H]([C@](C)(O)[C@@H](C)O)NC(=O)C5CSC(=N5)/C(=C/C)NC(=O)C([C@@H](C)O)NC(=O)c5csc(n5)[C@]3(CC2)NC(=O)[C@H](C)NC(=O)C(=C)NC(=O)[C@H](C)NC(=O)C([C@@H](C)CC)NC2C=Cc3c(C(C)O)cc(nc3[C@H]2O)C(=O)OC4C)n1)C(N)=O` (stereo partly drawn) is > 50 µM (inactive); for `Cc1ccc(Nc2nc(C(=O)NCc3ccc4c(c3)OCO4)cc3occc23)cc1Cl` it is 19 µM; for `CCN1CCN(C(=O)CCCN(c2ccccc2)S(C)(=O)=O)CC1` it is > 50 µM (inactive). The figure for `NC(=O)c1nnn(-c2ccc(NC(=O)c3ccc(F)c(F)c3)cc2)n1` is 11.2 µM; for `c1ccc(CN2CCN(c3nc4ccccc4n4nnnc34)CC2)cc1` it is > 50 µM (inactive).

With `Cc1cc(/C=C2/C(=N)N3C(c4ccccc4)=CSC3=NC2=O)c(C)n1-c1ccc(F)cc1`, the IC50 was > 50 µM (inactive).

As for `Cc1ccc2c(c1C)NC(=O)[C@]21[C@@H]2C(=O)N(c3cccc(Cl)c3)C(=O)[C@@H]2[C@@H]2CCCN21`, the IC50 was > 50 µM (inactive). The figure for `COc1cccc(NC(=O)C2Cc3ccccc3N2C(=O)c2ccccc2)c1` (stereo not drawn) is 22.6 µM; for `Cc1cc(=O)n(CC(=O)NCc2ccccc2F)c2c1c(C)nn2-c1ccccc1` it is 18.5 µM; for `Cc1nc(-c2ccc3c(c2)nnn3CCN2CCOCC2)no1` it is > 50 µM (inactive). `CCc1ccc(-n2c(=O)c3ccccc3n(CC(=O)NCCC3=CCCCC3)c2=O)cc1`: the half-maximal inhibitory concentration (IC50) is 14.5 µM. The figure for `Cc1ccc2[nH]c3c(=O)n(CC4CCCO4)cnc3c2c1` (stereo not drawn) is 18 µM; for `Cc1ccc2c(c1)c(=O)c(C(=O)c1ccccc1)cn2CC(=O)Nc1ccccc1` it is 15.4 µM; for `Cc1ccc2c(C)nc(Nc3ncc4c(n3)CC(c3ccco3)CC4=O)nc2c1` (stereo not drawn) it is below 0.05 µM. With `COc1cccc(N2CCN(C(=O)c3cc(NC(C)=O)cc4nc(C)ccc34)CC2)c1`, the IC50 was > 50 µM (inactive). The figure for `N#Cc1ccccc1Cn1c(=O)n(CCCCC(=O)NCCc2ccccc2)c(=O)c2ccccc21` is 19.6 µM; for `COc1cccc(-n2ccc(=O)c(-c3nc(-c4ccccc4Cl)no3)n2)c1` it is 27.4 µM; for `CSc1cccc(NC(=O)COc2cccc3ccccc23)c1` it is 2.57 µM. The figure for `Cc1ccc(CNC(=O)CCCn2c(=O)c3sccc3n(CC(=O)OCc3ccccc3)c2=O)cc1` is 2.15 µM; for `COc1cc(OC)c2c(c1)C(=O)C1=C(COC(C)(O)C1)C2=O` (stereo not drawn) it is > 50 µM (inactive).

Take `CC(=O)c1ccc(N2C(=O)N(Cc3cccc([N+](=O)[O-])c3)c3ccccc3S2(=O)=O)cc1`: the IC50 was > 50 µM (inactive).

Take `COc1cc(Cn2cnc3c([nH]c4ccc(Br)cc43)c2=O)cc(OC)c1`: the concentration for half-maximal inhibition (IC50) was 2.76 µM. The figure for `O=C(Nc1nc2ccccc2s1)c1ccc2c(c1)C(=O)N(Cc1cccnc1)C2=O` is 1.93 µM.

With `CC1CCN(S(=O)(=O)c2ccc(C(=O)Nc3ccc(S(N)(=O)=O)cc3)cc2)CC1`, the IC50 is 30.1 µM.

As for `CC(=O)c1ccc(NC(=O)C[n+]2cc(-c3ccc(Cl)cc3)n3c2CCC3)cc1`, the half-maximal inhibitory concentration (IC50) is 31.9 µM. The figure for `Cc1ccc2nc(CNC(=O)c3ccccc3-c3nc(-c4ccc(F)cc4)no3)[nH]c2c1` is 39 µM.
